pIC50: −log10 of the molar value.

The term pIC50 denotes −log10 of the IC50, conventionally taken in molar units.

The subject of assay [1] is HCT-116. Put plainly: Antiproliferative activity against human HCT-116 cells assessed as inhibition of cell growth. It counts as functional, cell-based.
Another assay has as its system SW-620. Kind of assay: Antiproliferative activity against human SW620 cells assessed as inhibition of cell growth. It counts as functional, cell-based.
In another assay the test system is Caco-2. Put plainly: Antiproliferative activity against human Caco-2 cells measured after 24 hrs by MTT assay. It counts as functional, cell-based. To be noted: Caco-2, 24 h. (In general: Formazan colour is commonly taken as a measure of viable cells.)
Assay [2] concerns HCT-116. Kind of assay: Antiproliferative activity against human HCT-116 cells incubated for 24 hrs by MTT assay. It counts as functional.
Assay [3] concerns HCT-116. Put plainly: Cytotoxicity against human HCT-116 cells assessed as inhibition of cell growth incubated for 24 hrs by MTT assay. It counts as functional.
The next assay has as its system LoVo. Kind of assay: Antiproliferative activity against human LoVo cells measured after 48 hrs by MTT assay. It counts as functional, cell-based.
Another assay concerns HCT-8. Kind of assay: Antiproliferative activity against human HCT-8 cells measured after 48 hrs by MTT assay. To be noted: HCT-8, 48 h. It counts as functional, cell-based.
Assay [4] deals with HCT-116. Put plainly: Antiproliferative activity against human HCT-116 cells measured after 48 hrs by MTT assay. It counts as functional, cell-based. The conditions noted are these: HCT-116, 48 h.
In the next assay the test system is KM12. Put plainly: Cytotoxicity against human KM12 cells. It counts as functional, cell-based.
The subject of another assay is COLO 205. Kind of assay: Cytotoxicity against human COLO 205 cells. It counts as functional, cell-based.
For assay [5], the system named is HT-29. Put plainly: Cytotoxicity against human HT-29 cells. It counts as functional, cell-based.
Assay [6] has as its system HT-29. Put plainly: Induction of cell cycle arrest in human HT-29 cells measured after 24 to 48 hrs by PI staining based flow cytometry analysis. It counts as functional. Background: Flow cytometry measures light scatter and fluorescence of single cells or particles in a stream.
Assay [7] relates to HCT-116. Kind of assay: Antiproliferative activity against human HCT-116 cells assessed as inhibition of cell growth measured upto 72 hrs by CCK-8 method. It counts as functional, cell-based. The conditions noted are these: HCT-116, 72 h.
The next assay concerns SW837. Put plainly: Antiproliferative activity against human SW837 cells. It counts as functional.
Assay [8] deals with HCT-116. Put plainly: Antiproliferative activity against human HCT-116 cells incubated for 48 hrs by MTT assay. It counts as functional, cell-based. The conditions noted are these: HCT-116, 48 h.
For assay [9], the system named is HT-29. Kind of assay: Antiproliferative activity against human HT-29 cells incubated for 48 hrs by MTT assay. It counts as functional, cell-based. The conditions noted are these: HT-29, 48 h.
For assay [10], the system named is SW480. Put plainly: Antiproliferative activity against human SW480 cells assessed as inhibition of cell growth incubated for 24 hrs by CCK-8 method. It counts as functional, cell-based. To be noted: SW480, 24 h.
In assay [11] the test system is HT-29. Kind of assay: Antiproliferative activity against human HT-29 cells assessed as inhibition of cell viability incubated for 24 hrs by CCK-8 method. It counts as functional, cell-based. The conditions noted are these: HT-29, 24 h.
The test system of assay [12] is HCT-116. Put plainly: Antiproliferative activity against human HCT-116 cells assessed as inhibition of cell viability by CCK-8 method. It counts as functional, cell-based.
In the next assay the test system is DLD-1. Put plainly: Antiproliferative activity against human DLD-1 cells assessed as inhibition of cell viability by CCK-8 method. It counts as functional, cell-based.
The subject of assay [13] is HCT-116. Put plainly: Cytotoxicity against human HCT-116 cells measured after 48 hrs by MTT colorimetric assay. It counts as functional, cell-based. The conditions noted are these: HCT-116, 48 h.
The subject of assay [14] is HCT-116. Kind of assay: Cytotoxicity against human HCT-116 cells assessed as inhibition of cell proliferation measured after 48 hrs by MTT assay. It counts as functional, cell-based. To be noted: HCT-116, 48 h.
In assay [15] the test system is SW480. Kind of assay: Cytotoxicity against human SW480 cells assessed as inhibition of cell proliferation measured after 48 hrs by MTT assay. It counts as functional, cell-based. The conditions noted are these: Homo sapiens, SW480, 48 h.
For another assay, the system named is RKO. Put plainly: Cytotoxicity against human RKO cells assessed as inhibition of cell proliferation measured after 48 hrs by MTT assay. It counts as functional, cell-based.
The subject of assay [16] is HT-29. Put plainly: Antiproliferative activity against human HT-29 cells assessed as inhibition of cell viability measured after 24 hrs by CCK-8 method. It counts as functional, cell-based. The conditions noted are these: HT-29, 24 h.
The test system of assay [17] is HCT-116. Kind of assay: Antiproliferative activity against human HCT-116 cells assessed as inhibition of cell viability measured after 24 hrs by CCK-8 method. To be noted: HCT-116, 24 h. It counts as functional, cell-based.
For the next assay, the system named is COLO 320. Put plainly: Antiproliferative activity in human COLO 320 cells incubated for 24 hrs by MTT assay. It counts as functional.

Consider `CC1=C(O)C(=O)C=C2C1=CC=C1[C@@]2(C)CC[C@@]2(C)[C@@H]3C[C@](C)(C(=O)O)CC[C@]3(C)CC[C@]12C` [CELASTROL], for which the pIC50 in the assay on HCT-116 [1] and with SW-620 was 6.54 in each case. As for `C[S+]([O-])CCCCN=C=S` (centres undefined) [SULFORAPHANE], in the assay on Caco-2, the pIC50 is 4.26.

Compound `COc1ccccc1[C@@H](NS(=O)(=O)c1ccc2[nH]c(=O)ccc2c1)C(=O)N(Cc1ccco1)Cc1cccs1` showed an IC in the assay on HCT-116 [2] of 20 µM. As to `NCCCNCCCCNCCCN1C(=O)c2ccc3c4c(ccc(c24)C1=O)C(=O)N(CCCNCCCCNCCCN)C3=O`, the IC with HCT-116 [3] was 1 µM. As for `CO[C@H]1C(=O)[C@]2(C)[C@@H](OC)C[C@H]3OC[C@@]3(OC(C)=O)[C@H]2[C@H](OC(=O)c2ccccc2)[C@]2(O)C[C@H](OC(=O)[C@H](O)[C@@H](NC(=O)OC(C)(C)C)c3ccccc3)C(C)=C1C2(C)C` [CABAZITAXEL], the pIC50 in the assay on LoVo is 7.20; in the assay with HCT-8 it was 6.27; with HCT-116 [4], 7.54. With `c1ccc(-c2ccc(-c3csc(N/N=C4\CCc5ccccc54)n3)cc2)cc1`, the negative logarithm of the IC50 (pIC50) was 6.39 with KM12, 6.01 in the assay with COLO 205 and 6.36 with HT-29 [5].

Compound `N#CC1=C(N)Oc2ccc3ccccc3c2C1c1ccc(F)cc1` (centres undefined) gave a pIC50 with HT-29 [6] of 4.22. As for `CC(=O)Oc1ccccc1C(=O)O` [ASPIRIN], the negative-log IC50 (pIC50) with HCT-116 [7] was 2.10. For `Cc1ncsc1-c1ccc([C@H](C)NC(=O)[C@@H]2C[C@@H](O)CN2C(=O)[C@@H](NC(=O)CCCCCC(=O)N2CCN(CC[C@H](CSc3ccccc3)Nc3ccc(S(=O)(=O)NC(=O)c4ccc(N5CCN(CC6=C(c7ccc(Cl)cc7)CCC(C)(C)C6)CC5)cc4)cc3S(=O)(=O)C(F)(F)F)CC2)C(C)(C)C)cc1` [DT-2216], the IC in the assay with SW837 is 1 µM. As for `O=c1cc(-c2ccc(Oc3c(-c4ccc(O)cc4)oc4cc(O)cc(O)c4c3=O)cc2)oc2cc(O)cc(O)c12`, the results for the negative logarithm of the IC50 (pIC50) with HCT-116 [8] and in the assay on HT-29 [9] were 4.49 and 4.73, respectively.

As to `CC(CN1c2ccccc2Sc2ccccc21)N(C)C` (centres undefined) [PROMETHAZINE], the pIC50 in the assay on SW480 [10] is 4.48; in the assay with HT-29 [11], 4.56.

Take `COC(=O)[C@H](C)NC(=O)N[C@]1(C)CC[C@]2(C)CC[C@]3(C)C4=CC=C5C(=CC(=O)C(O)=C5C)[C@]4(C)CC[C@@]3(C)[C@@H]2C1`: the negative-log IC50 (pIC50) in the assay on HCT-116 [1] and with SW-620 was 6.55 throughout. Take CETUXIMAB: the IC in the assay on HCT-116 [12] and with DLD-1 was 100 µM each time. `CC(=O)Oc1ccccc1C(=O)Nc1ncc([N+](=O)[O-])s1` [NITAZOXANIDE] had a negative logarithm of the IC50 (pIC50) in the assay with HCT-116 [13] of 4.95.

With `C[C@@H]1CC[C@@]2(OC1)O[C@H]1C[C@H]3[C@@H]4CC=C5C[C@H](O[C@@H]6O[C@H](CO)[C@@H](O)[C@H](O[C@@H]7O[C@H](CO)[C@@H](O)[C@H](O)[C@H]7O)[C@H]6O[C@@H]6O[C@@H](C)[C@H](O)[C@@H](O)[C@H]6O)CC[C@]5(C)[C@H]4CC[C@]3(C)[C@H]1[C@@H]2C`, the pIC50 in the assay on HCT-116 [14] is 5.26; with SW480 [15] it was 5.57; in the assay with RKO, 5.51. For the compound `O=c1cc(-c2ccc(O)cc2)oc2cc(O)c([C@@H]3O[C@H](CO)[C@@H](O)[C@H](O)[C@H]3O)c(O)c12` [ISOVITEXIN], the pIC50 is 4.43 with HT-29 [16] and 4.53 with HCT-116 [17]. In the assay with COLO 320, `O=c1c(O)c(-c2ccc(O)c(O)c2)oc2cc(O)cc(O)c12` [QUERCETIN] returned an IC of 50 µM.

Source of the values: ChEMBL document CHEMBL5512605, “Targeted regulated cell death with small molecule compounds in colorectal cancer: Current perspectives of targeted therapy and molecular mechanisms” (Eur J Med Chem, 2024).
